Test results from patent publication US20090298878A1, “OXIME COMPOUNDS AND THE USE THEREOF” (priority 2006, published 2009).
Where a name gives a salt, the structure may show the parent alone.

Each compound was assayed against T1, N-type calcium channel (NTCC) (Homo sapiens, UniProt Q00975) (assay: FLIPR calcium mobilization assay for N-type calcium channel (differentiated IMR32 cells)). Conditions: about 1.0 μM or less; calcium mobilization and/or electrophysiological assay.
T1 construct: host or cells: IMR32 cells differentiated with dibutyryl cAMP and bromodeoxyuridine
T1 sequence (Q00975 whole entry): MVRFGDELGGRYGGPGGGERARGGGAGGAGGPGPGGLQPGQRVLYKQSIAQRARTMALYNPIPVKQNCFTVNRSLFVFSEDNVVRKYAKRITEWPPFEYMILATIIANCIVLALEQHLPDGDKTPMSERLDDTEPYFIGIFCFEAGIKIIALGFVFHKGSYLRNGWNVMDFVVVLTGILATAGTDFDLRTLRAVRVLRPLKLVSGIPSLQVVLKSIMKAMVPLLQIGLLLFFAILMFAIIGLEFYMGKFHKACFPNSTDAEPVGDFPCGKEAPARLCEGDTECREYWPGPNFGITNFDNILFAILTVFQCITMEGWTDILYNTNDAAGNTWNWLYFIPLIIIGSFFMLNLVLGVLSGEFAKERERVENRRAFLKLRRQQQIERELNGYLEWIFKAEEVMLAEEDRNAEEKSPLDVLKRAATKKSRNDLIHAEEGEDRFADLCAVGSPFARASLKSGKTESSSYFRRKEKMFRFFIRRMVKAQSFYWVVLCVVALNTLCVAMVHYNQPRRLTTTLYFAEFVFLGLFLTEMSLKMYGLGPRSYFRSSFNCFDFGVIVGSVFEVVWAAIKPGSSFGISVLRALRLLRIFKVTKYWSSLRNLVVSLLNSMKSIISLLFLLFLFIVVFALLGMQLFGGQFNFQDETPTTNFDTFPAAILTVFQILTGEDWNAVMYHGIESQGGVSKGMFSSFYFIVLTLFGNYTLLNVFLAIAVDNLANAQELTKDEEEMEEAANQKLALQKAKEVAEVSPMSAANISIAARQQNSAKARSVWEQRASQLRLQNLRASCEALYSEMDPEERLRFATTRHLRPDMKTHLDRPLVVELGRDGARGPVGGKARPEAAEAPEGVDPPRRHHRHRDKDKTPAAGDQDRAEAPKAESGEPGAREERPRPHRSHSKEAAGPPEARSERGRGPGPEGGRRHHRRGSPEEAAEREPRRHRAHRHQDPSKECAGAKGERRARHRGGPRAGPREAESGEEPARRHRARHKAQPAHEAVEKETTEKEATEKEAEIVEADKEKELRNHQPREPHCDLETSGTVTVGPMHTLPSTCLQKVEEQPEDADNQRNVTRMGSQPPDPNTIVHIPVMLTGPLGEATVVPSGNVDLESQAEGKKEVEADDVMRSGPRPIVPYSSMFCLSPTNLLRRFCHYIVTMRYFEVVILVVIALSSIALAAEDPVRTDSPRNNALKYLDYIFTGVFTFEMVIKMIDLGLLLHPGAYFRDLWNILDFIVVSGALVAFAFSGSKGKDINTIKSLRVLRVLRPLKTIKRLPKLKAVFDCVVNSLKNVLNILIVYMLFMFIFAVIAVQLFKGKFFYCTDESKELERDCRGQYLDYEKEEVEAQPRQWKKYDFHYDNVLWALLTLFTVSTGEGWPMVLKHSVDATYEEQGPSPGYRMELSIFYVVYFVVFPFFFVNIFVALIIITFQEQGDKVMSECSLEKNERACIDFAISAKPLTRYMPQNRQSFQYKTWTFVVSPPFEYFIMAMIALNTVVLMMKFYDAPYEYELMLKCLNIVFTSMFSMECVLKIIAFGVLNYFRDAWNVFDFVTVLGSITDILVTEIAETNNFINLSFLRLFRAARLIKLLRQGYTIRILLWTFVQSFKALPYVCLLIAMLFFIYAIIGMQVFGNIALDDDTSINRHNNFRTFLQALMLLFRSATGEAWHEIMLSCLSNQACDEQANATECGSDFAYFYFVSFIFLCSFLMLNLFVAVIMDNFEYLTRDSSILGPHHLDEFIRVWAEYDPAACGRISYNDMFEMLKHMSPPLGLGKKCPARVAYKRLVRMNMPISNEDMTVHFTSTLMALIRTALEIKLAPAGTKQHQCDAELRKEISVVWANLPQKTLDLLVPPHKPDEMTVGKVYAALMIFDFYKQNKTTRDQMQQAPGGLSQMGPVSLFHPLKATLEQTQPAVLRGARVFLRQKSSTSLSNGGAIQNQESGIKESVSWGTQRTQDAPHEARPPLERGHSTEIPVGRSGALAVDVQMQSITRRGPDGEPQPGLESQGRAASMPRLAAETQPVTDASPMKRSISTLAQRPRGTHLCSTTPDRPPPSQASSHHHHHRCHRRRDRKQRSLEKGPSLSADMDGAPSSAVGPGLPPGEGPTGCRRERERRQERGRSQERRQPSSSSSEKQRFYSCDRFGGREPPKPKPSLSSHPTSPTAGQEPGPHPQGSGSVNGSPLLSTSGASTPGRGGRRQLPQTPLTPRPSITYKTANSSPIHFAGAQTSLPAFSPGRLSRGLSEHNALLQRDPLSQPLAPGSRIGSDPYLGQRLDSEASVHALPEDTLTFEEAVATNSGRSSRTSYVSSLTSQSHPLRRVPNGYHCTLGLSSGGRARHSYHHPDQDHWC
Type: cell-based
Protocol: Cell maintenance and differentiation. Unless noted otherwise, cell culture reagents were purchased from Mediatech of Hemdon, Md. IMR32 cells (American Type Culture Collection, ATCC, Manassas, Va.) were routinely cultured in growth medium consisting of minimum essential medium containing 10% fetal bovine serum (FBS, Hyclone, Logan, Utah), 100 U/mL penicillin, 100 μg/mL streptomycin, 2 mM L-glutamine, 1 mM sodium pyruvate, and 1× MEM non-essential amino acids. 80-90% confluent flasks of cells were differentiated using the following differentiation medium: Growth medium plus 1 mM dibutyryl cyclic AMP (Sigma, St. Louis, Mo.), and 2.5 μM bromodeoxyuridine (Sigma). Cells were differentiated for 8 days by replacing differentiation medium every 2-3 days.
FLIPR Calcium Mobilization Assay for N-type Calcium Channel. One day prior to performing this assay, differentiated IMR32 cells were treated with 1× CellStripper, and seeded on poly-D-lysine-coated 96-well clear-bottom black plates (Becton Dickinson, Franklin Lakes, N.J.) at 200,000 cells/well. On the day of the assay, the cell plates were washed with IMR32 buffer (127 mM NaCl, 1 mM KCl, 2 mM MgCl2, 700 μM NaH2PO4, 5 mM CaCl2, 5 mM NaHCO3, 8 mM HEPES, 10 mM glucose, pH 7.4), then pre-stimulated with KCl and loaded as follows: 0.05 mL of IMR32 buffer, 0.05 mL of each compound tested diluted in IMR32 buffer containing 20 μM nitrendipine (Sigma), and 0.1 mL KCl dissolved in IMR32 buffer, plus Fluo-4 were added (3 μM final concentration, Molecular Probes, Eugene, Oreg.). Final test compound concentrations ranged from about 846 pM to about 17 μM, final nitrendipine concentration was 5 μM, and final KCl concentration was 90 mM. After 1 hour, the cells were washed twice with 0.05 mL of each compound tested in nitrendipine-containing IMR32 buffer (no KCl or Fluo-4), and then replaced with 0.1 mL of each compound tested in nitrendipine-containing IMR32 buffer. Plates were then transferred to a Fluorimetric imaging Plate Reader (FLIPR^96, Molecular Devices, Inc., Sunnyvale, Calif.) for assay. The FLIPR measured basal Fluo-4 fluorescence for 315 seconds (i.e., 5 minutes and 15 seconds), then added 0.1 mL KCl agonist dissolved in IMR32 buffer and measured fluorescence for another 45 seconds. Final test compound concentrations on the cells after FLIPR read ranged from about 846 pM to about 17 μM, final nitrendipine concentration was 5 μM, and final KCl concentration was 90 mM. Data were collected over the entire time course and analyzed using Excel, Graph Pad Prism (version 3.02, Graph Pad, San Diego, Calif.), or an in-house non-linear regression analysis software.
O=C(CCC(c1ccc(F)cc1)c1ccc(F)cc1)N1CCC(=NOCc2cccc(C(F)(F)F)c2)CC1 [Example 29, 1-[4,4-Bis-(4-fluorophenyl)butyryl]piperidin-4-one O-(3-trifluoromethylbenzyl)oxime] showed an IC50 of at most 1000 nM.
With O=S(=O)(c1cccc(C(F)(F)F)c1)N1CCC(=NOC/C=C/c2ccccc2)CC1 [Example 368, 1-(3-(Trifluoromethyl)phenylsulfonyl)piperidin-4-one O-cinnamyl oxime] the IC50 was at most 1000 nM.
N#Cc1cccc(CON=C2CCN(S(=O)(=O)c3ccc(OC(F)F)cc3)CC2)c1 [Example 197, 3-((1-(4-(Difluoromethoxy)phenylsulfonyl)piperidin-4-ylideneaminooxy)methyl)benzonitrile] was tested, and the IC50 was at most 1000 nM.
With CC(C)OCC(ON=C1CCN(S(=O)(=O)c2ccc(OC(F)(F)F)cc2)CC1)c1cccc(C#N)c1 (stereo not shown) [Example 303, 3-(2-Isopropoxy-1-(1-(4-(trifluoromethoxy)phenylsulfonyl)piperidin-4-ylideneaminooxy)ethyl)benzonitrile] the IC50 was at most 1000 nM.
With O=S(=O)(c1ccc(OC(F)(F)F)cc1)N1CCC(=NOC(c2cccc(C(F)(F)F)c2)C2CC2)CC1 (stereo not shown) [Example 307, 1-(4-(Trifluoromethoxy)phenylsulfonyl)piperidin-4-one O-cyclopropyl(3-(trifluoromethyl)phenyl)methyl oxime] the IC50 was at most 1000 nM.
CCCCc1ccc(S(=O)(=O)N2CCC(=NOCc3ccc(Cl)cc3)CC2)cc1 [Example 72, 1-(4-Butylbenzenesulfonyl)piperidin-4-one O-(4-chlorobenzyl)oxime] showed an IC50 of at most 1000 nM.
CCCCc1ccc(S(=O)(=O)N2CCC(=NOCc3ccccc3C(F)(F)F)CC2)cc1 [Example 78, 1-(4-Butylbenzenesulfonyl)piperidin-4-one O-(2-trifluoromethylbenzyl)oxime] showed an IC50 of at most 1000 nM.
In the case of N#Cc1cccc(C(ON=C2CCN(S(=O)(=O)c3ccc(C#N)nc3)CC2)C2CC2)c1 (stereo not shown) [Example 278, 5-(4-((3-Cyanophenyl)(cyclopropyl)methoxyimino)piperidin-1-ylsulfonyl)picolinonitrile], the IC50 is reported as at most 1000 nM.
CCOc1ccc(S(=O)(=O)N2CCC(=NOCc3cccc(C(F)(F)F)c3)CC2)cc1 [Example 91, 1-(4-Ethoxybenzenesulfonyl)piperidin-4-one O-(3-trifluoromethylbenzyl)oxime] was tested, and the IC50 was at most 1000 nM.
Work on COc1ncccc1CON=C1CCN(S(=O)(=O)c2ccc(OC(F)(F)F)cc2)CC1 [Example 111, 1-(4-Trifluoromethoxybenzenesulfonyl)piperidin-4-one O-(2-methoxypyridin-3-ylmethyl)oxime] yielded an IC50 of at most 1000 nM.
With O=S(=O)(c1ccc(OC(F)(F)F)cc1)N1CCC(=NOC[C@@H]2Cc3ccccc3N2)CC1 [Example 263, (S)-1-(4-(trifluoromethoxy)phenylsulfonyl)piperidin-4-one O-indolin-2-ylmethyl oxime] the IC50 was at most 1000 nM.
N#Cc1cccc(CON=C2CCN(S(=O)(=O)c3ccc(F)c(F)c3)CC2)c1 [Example 210, 3-((1-(3,4-Difluorophenylsulfonyl)piperidin-4-ylideneaminooxy)methyl)benzonitrile] was tested, and the IC50 was at most 1000 nM.
Compound O=S(=O)(c1cccc(Cl)c1)N1CCC(=NOC(c2ccc(F)cc2)c2ccc(F)cc2)CC1 [Example 292, 1-(3-Chlorophenylsulfonyl)piperidin-4-one O-bis(4-fluorophenyl)methyl oxime] has an IC50 of at most 1000 nM.
In the case of O=S(=O)(c1ccc(Cl)nc1)N1CCC(=NOCc2cccc(C(F)(F)F)c2)CC1 [Example 64, 1-(6-Chloropyridine-3-sulfonyl)piperidin-4-one O-(3-trifluoromethylbenzyl)oxime], the IC50 is reported as at most 1000 nM.
O=S(=O)(c1ccccc1F)N1CCC(=NOCc2cccc(C(F)(F)F)c2)CC1 [Example 63, 1-(2-Fluorobenzenesulfonyl)piperidin-4-one O-(3-trifluoromethylbenzyl)oxime] was tested, and the IC50 was at most 1000 nM.
For CCCCc1ccc(S(=O)(=O)N2CCC(=NOCc3ccc(F)c(C(F)(F)F)c3)CC2)cc1 [Example 81, 1-(4-Butylbenzenesulfonyl)piperidin-4-one O-(4-fluoro-3-trifluoromethylbenzyl)oxime], the IC50 was at most 1000 nM.
O=c1cc(CON=C2CCN(S(=O)(=O)c3ccc(OC(F)(F)F)cc3)CC2)ccn1Cc1ccc(F)cc1 [Example 296, 1-(4-Fluorobenzyl)-4-((1-(4-(trifluoromethoxy)phenylsulfonyl)piperidin-4-ylideneaminooxy)methyl)pyridin-2(1H)-one] showed an IC50 of at most 1000 nM.
In the case of O=S(=O)(c1ccc(OC(F)(F)F)cc1)N1CCC(=NOCc2cccc(C(F)(F)F)c2)CC1 [Example 58, 1-(4-Trifluoromethoxybenzenesulfonyl)piperidin-4-one O-(3-trifluoromethylbenzyl)oxime], the IC50 is reported as at most 1000 nM.
O=S(=O)(c1cccc2cccnc12)N1CCC(=NOC(c2ccc(F)cc2)c2ccc(F)cc2)CC1 [Example 251, 1-(Quinolin-8-ylsulfonyl)piperidin-4-one O-bis(4-fluorophenyl)methyl oxime] showed an IC50 of at most 1000 nM.
With O=C(CCN1CCC(Cc2ccccc2)CC1)N1CCC(=NOCc2cccc(C(F)(F)F)c2)CC1 [Example 48, 1-[3-(4-Benzylpiperidin-1-yl)propionyl]piperidin-4-one O-(3-trifluoromethylbenzyl)oxime hydrochloride] the IC50 was at most 1000 nM.
O=S(=O)(c1ccc(OC(F)(F)F)cc1)N1CCC(=NOCc2ccc(Cl)cn2)CC1 [Example 127, 1-(4-Trifluoromethoxybenzenesulfonyl)piperidin-4-one O-(5-chloropyridin-2-ylmethyl)oxime] gave an IC50 of at most 1000 nM.
In the case of CC(C)Oc1ccc(S(=O)(=O)N2CCC(=NOCc3cccc(C(F)(F)F)c3)CC2)cc1 [Example 93, 1-(4-Isopropoxybenzenesulfonyl)piperidin-4-one O-(3-trifluoromethylbenzyl)oxime], the IC50 is reported as at most 1000 nM.
With O=S(=O)(c1ccccc1OC(F)(F)F)N1CCC(=NOC(c2ccc(F)cc2)c2ccc(F)cc2)CC1 [Example 289, 1-(2-(Trifluoromethoxy)phenylsulfonyl)piperidin-4-one O-bis(4-fluorophenyl)methyl oxime] the IC50 was at most 1000 nM.
COC(=O)c1cccc(S(=O)(=O)N2CCC(=NOC(c3ccc(F)cc3)c3ccc(F)cc3)CC2)c1 [Example 286, Methyl 3-(4-(bis(4-fluorophenyl)methoxyimino)piperidin-1-ylsulfonyl)benzoate] was tested, and the IC50 was at most 1000 nM.
In the case of O=S(=O)(c1ccc(OCC2CC2)cc1)N1CCC(=NOCc2cccc(C(F)(F)F)c2)CC1 [Example 95, 1-(4-Cyclopropylmethoxybenzenesulfonyl)piperidin-4-one O-(3-trifluoromethylbenzyl)oxime], the IC50 is reported as at most 1000 nM.
O=C(CN1CCC(=NOCc2cccc(C(F)(F)F)c2)CC1)NCc1cc(C(F)(F)F)cc(C(F)(F)F)c1 [Example 329, N-(3,5-Bis(trifluoromethyl)benzyl)-2-(4-(3-(trifluoromethyl)benzyloxyimino)piperidin-1-yl)acetamide] showed an IC50 of at most 1000 nM.
Work on O=S(=O)(c1ccsc1)N1CCC(=NOC(c2ccc(F)cc2)c2ccc(F)cc2)CC1 [Example 287, 1-(Thiophen-3-ylsulfonyl)piperidin-4-one O-bis(4-fluorophenyl)methyl oxime] yielded an IC50 of at most 1000 nM.

Same assay, conditions: calcium mobilization in vitro assay, N-type calcium channel blockers
In the case of O=C(CN1CCC(=NOC(c2ccc(F)cc2)c2ccc(F)cc2)CC1)Nc1cc(C(F)(F)F)cc(C(F)(F)F)c1 [Example 328, 2-(4-(Bis(4-fluorophenyl)methoxyimino)piperidin-1-yl)-N-(3,5-bis(trifluoromethyl)phenyl)acetamide], the IC50 is reported as 1100 nM.
